The source of these data is article PMC8762250, “Identification of Novel Chemical Scaffolds that Inhibit the Growth of Mycobacterium tuberculosis in Macrophages” (Frontiers in Pharmacology, 2022).

One series concerns RAW264.7 cells. Description: Macrophage viability in the same high content assay. As to conditions: for Intracellular activity Cytotoxicity TC50 / Intracellular RAW TC50: infected RAW264.7 macrophages; for Intracellular activity Cytotoxicity TC50: 72 h; for Intracellular RAW TC50: SAR tables 4-8; for selectivity index (TC50/IC50): macrophage TC50 / intracellular IC50.
Series [1] deals with M. tuberculosis. Description: Minimum inhibitory concentration in liquid medium (axenic culture). The class given is cell-based, Mycobacterium tuberculosis. The settings on record: Mycobacterium tuberculosis; for IC50: read-out: Anti-tubercular activity in axenic culture IC50.
Another series deals with HepG2 cells. Description: HepG2 cytotoxicity (CellTiter-Glo, 72 h). Format: cell-based, human. As to conditions: human, 72 h. As to the method:
(§1) Cytotoxicity against HepG2 cells was measured after 72 h. Cells were seeded in 384-well plates at 1,800 cells per well. Compounds were added as a 10-point three-fold serial dilution after 24 h (final assay concentration of 1% DMSO). CellTiter-Glo® reagent (Promega) was added and relative luminescence units (RLU) measured. Data were normalized to the DMSO controls. Curves were fitted using the Levenberg–Marquardt algorithm; TC50 was calculated as the compound concentration required to reduce cell viability by 50%.
(§2) We further evaluated cytotoxicity using the HepG2 cell line cultured with either glucose or galactose in the medium (Table 2). HepG2 cells cultured with galactose rely on mitochondrial oxidative phosphorylation rather than glycolysis which increases their susceptibility to mitochondrial toxicants allowing us to identify compounds with mitochondrial toxicity ([Kamalian et al., 2015]).
A general note: In ATP-based viability assays light output follows the ATP content of the culture.

The nature of series [2]: HepG2 cytotoxicity (CellTiter-Glo, 72 h). As to conditions: human. The class given is cell-based, human. As to the method: as §1, §2
The test system of series [3] is M. tuberculosis. Description: High content assay of intracellular M. tuberculosis growth in infected RAW264.7 macrophages. The class given is cell-based, Mycobacterium tuberculosis H37Rv-LP. As to the method: Compounds were obtained in 384-well plates as 10 mM DMSO stock solutions and tested as described ([Manning et al., 2017]). Briefly, assay plates were prepared in clear bottom, black 384-well plates with 30 μl cRPMI and 0.6 μl compound in columns 3–22 (final concentration of 10 μM compound, 1% DMSO). […] INH and STA were also included in dose response on each plate. RAW264.7 cells were infected with M. tuberculosis DREAM8 as described ([Manning et al., 2017]) at an MOI of 1 for 24 h and extracellular bacteria removed by washing. Cells were recovered using Accumax, harvested, washed and resuspended in serum-free RPMI; 30 μl of infected cells were dispensed into each well at 3,300 cells/well. Plates were incubated for 72 h, 10 μl of 5X SYBR Green I was added and plates were imaged with an ImageXpress Micro High Content Screening System (Molecular Devices) using a ×4 objective and FITC and Texas Red channels. MetaXpress was used to analyze images. The integrated intensity of M. tuberculosis or macrophages was calculated for each well. Growth inhibition was calculated for each test well by normalizing to the average integrated intensity of the DMSO control wells. IC50 was calculated as the compound concentration required to reduce bacterial growth by 50%. TC50 was calculated as the compound concentration required to reduce macrophage viability by 50%.

Setting [4] is: 120 h, extracellular, 5 days, OD590.
The mark [5] stands for this setting: 120 h, extracellular, 5 days, OD590, read-out: Anti-tubercular activity in axenic culture IC90.
[6] abbreviates: axenic culture, SAR tables 4-8, read-out: Extracellular IC90.
The mark [7] stands for this setting: HepG2 cytotoxicity IC50 Galactose.
The mark [8] stands for this setting: HepG2 cytotoxicity IC50 Glucose.
Where [9] appears, read: Mycobacterium tuberculosis, RAW264.7, 72 h, M. tuberculosis in RAW264.7 cells, MOI 1, 72 h, read-out: Intracellular activity Anti-tubercular activity IC50.
The mark [10] stands for this setting: Mycobacterium tuberculosis, RAW264.7, in RAW264.7 macrophages, SAR tables 4-8, read-out: Intracellular Mtb IC50.
[11] abbreviates: Mycobacterium tuberculosis, RAW264.7, read-out: Intracellular Mtb IC50, in RAW264.7 macrophages, SAR tables 4-8.

Like-named read-outs stand apart in the source and are kept apart here. Marks after values point to notes of the source that are not given here.

For `Cc1ccc(SCC(=O)Nc2ccc(Br)c(C)c2)cc1` [TPN-0006207], the “Intracellular activity Cytotoxicity TC50” value in the series with RAW264.7 cells is recorded as >100 ^b µM. The “Intracellular RAW TC50” value with RAW264.7 cells was >100 ^b µM. Also, the IC50 is more than 20 µM in the series on M. tuberculosis [1] (setting [4]), 6.3 ± 0.3 µM in the series with M. tuberculosis [3] (setting [9]) and 6.3 ± 0.3 µM in the series with M. tuberculosis [3] (setting [10]). Moreover, the IC90 in the series with M. tuberculosis [1] (setting [5]) and with M. tuberculosis [1] (setting [6]) was more than 20 µM in each case. Moreover, the “HepG2 cytotoxicity TC50 Galactose” value in the series with HepG2 cells is on record as >100 ^b µM. Further, the “HepG2 cytotoxicity TC50 Glucose” value in the series on HepG2 cells is recorded as >100 ^b µM. Further, the IC50 at 72 h in series [2] (setting [7]) and in series [2] (setting [8]) was more than 100 µM in each case. Moreover, in the series with M. tuberculosis [3], the “activity against intracellular M. tuberculosis” value is “good intracellular activity”.

On to `O=C(COc1ccccc1)NC12CC3CC(CC(C3)C1)C2` [TPN-0006211], for which, in the series on RAW264.7 cells, the “Intracellular activity Cytotoxicity TC50” value is reported as 38 ± 6.0 ^b µM. Moreover, the “Intracellular RAW TC50” value in the series on RAW264.7 cells is reported as 38 ± 6.0 ^b µM. Also, the IC50 was more than 20 µM in the series on M. tuberculosis [1] (setting [4]), 7.6 ± 3.5 µM in the series on M. tuberculosis [3] (setting [9]) and 7.6 ± 3.5 µM in the series on M. tuberculosis [3] (setting [10]). In addition, the IC90 with M. tuberculosis [1] (setting [5]) and with M. tuberculosis [1] (setting [6]) was more than 20 µM throughout. In addition, in the series with HepG2 cells, the “HepG2 cytotoxicity TC50 Galactose” value is 43 ± 1 ^b µM. Further, in the series with HepG2 cells, the “HepG2 cytotoxicity TC50 Glucose” value is given as 53 ± 1.5 ^b µM. Besides, the IC50 at 72 h in series [2] (setting [7]) was 43 ± 1 µM; in series [2] (setting [8]), 53 ± 1.5 µM.

As for `CC(C)c1ccc(OCC(=O)Nc2nccs2)cc1` [TPN-0006217], the “Intracellular activity Cytotoxicity TC50” value in the series with RAW264.7 cells is recorded as 75 ± 16 ^d µM. In addition, the half-inhibitory concentration (IC50) was more than 20 µM in the series with M. tuberculosis [1] (setting [4]) and 4.9 ± 2.1 µM in the series with M. tuberculosis [3] (setting [9]). In addition, the IC90 in the series with M. tuberculosis [1] (setting [5]) and in the series with M. tuberculosis [1] (setting [6]) was more than 20 µM throughout. In addition, the “HepG2 cytotoxicity TC50 Galactose” value in the series on HepG2 cells was 64 ± 1.5 ^b µM. Also, in the series with HepG2 cells, the “HepG2 cytotoxicity TC50 Glucose” value is given as 91 ± 3 ^b µM. Also, the figures for the IC50 at 72 h in series [2] (setting [7]) and in series [2] (setting [8]) were 64 ± 1.5 µM and 91 ± 3 µM, respectively.

On to `Nc1c(C(=O)N2CCCC2)sc2nc(-c3ccccc3)ccc12` [TPN-0073027], for which the “Intracellular activity Cytotoxicity TC50” value with RAW264.7 cells is recorded as more than 100e µM. Also, in the series on RAW264.7 cells, the “Intracellular RAW TC50” value is >100 ^g µM. Besides, the IC50 with M. tuberculosis [1] (setting [4]) is more than 20 µM; with M. tuberculosis [3] (setting [9]) it was 5.8 ± 2.1 µM; with M. tuberculosis [3] (setting [10]), less than 10 µM; in the series on M. tuberculosis [3] (in RAW264.7 macrophages, SAR tables 4-8, read-out: Intracellular Mtb IC50), 6.8 ± 3.3 µM. The IC90 with M. tuberculosis [1] (setting [5]) and in the series on M. tuberculosis [1] (setting [6]) was more than 20 µM each time. In the series with HepG2 cells, the “HepG2 cytotoxicity TC50 Galactose” value was 64 ± 10 ^e µM. In addition, the “HepG2 cytotoxicity TC50 Glucose” value with HepG2 cells is reported as 82 ± 25 ^d µM. The IC50 at 72 h is 64 ± 12 µM in series [2] (setting [7]) and 72 ± 22 µM in series [2] (setting [8]).

As for `Cc1cc(C)nc(NC(=N)Nc2ccc(Br)cc2)n1` [TPN-0073061], the “Intracellular activity Cytotoxicity TC50” value in the series with RAW264.7 cells was 18 ± 4.3 ^d µM. Further, in the series on RAW264.7 cells, the “Intracellular RAW TC50” value is 18 ± 4.3 ^d µM. Moreover, the “selectivity index (TC50/IC50)” value in the series with RAW264.7 cells stood at 14. Further, the IC50 stood at 6.3 ± 0.15 µM with M. tuberculosis [1] (setting [4]), 1.3 ± 0.15 µM in the series with M. tuberculosis [3] (setting [9]) and 1.3 ± 0.1 µM in the series with M. tuberculosis [3] (setting [11]). The IC90 in the series on M. tuberculosis [1] (setting [5]) and with M. tuberculosis [1] (setting [6]) was 8.2 ± 0.1 µM in each case. In addition, the “HepG2 cytotoxicity TC50 Galactose” value in the series on HepG2 cells is recorded as 22 ± 3.1 ^c µM. Also, the “HepG2 cytotoxicity TC50 Glucose” value with HepG2 cells is 22 ± 4.0 ^c µM. Moreover, the IC50 at 72 h turned out to be 22 ± 3.1 µM in series [2] (setting [7]) and 212 ± 4 µM in series [2] (setting [8]).

With `CCOc1ccc(NC(=S)Nc2ccccc2)cc1` [TPN-0073062], the “Intracellular activity Cytotoxicity TC50” value with RAW264.7 cells is on record as >100 ^d µM. Also, the “Intracellular RAW TC50” value in the series with RAW264.7 cells is given as >100 ^d µM. Besides, the “selectivity index (TC50/IC50)” value in the series on RAW264.7 cells is more than 250. Also, the IC50 in the series with M. tuberculosis [1] (setting [4]) was 11 ± 5.3 µM; in the series with M. tuberculosis [3] (setting [9]), 0.39 ± 0.13 µM; in the series on M. tuberculosis [3] (setting [11]) it was 0.4 ± 0.1 µM. The IC90 with M. tuberculosis [1] (setting [5]) and with M. tuberculosis [1] (setting [6]) was more than 20 µM in each case. Also, in the series on HepG2 cells, the “HepG2 cytotoxicity TC50 Galactose” value is listed as >100 ^e µM. The “HepG2 cytotoxicity TC50 Glucose” value in the series on HepG2 cells is on record as >100 ^e µM. Further, the IC50 at 72 h in series [2] (setting [7]) and in series [2] (setting [8]) was more than 100 µM in each case.

What is called IC50 is the concentration needed to halve the response being measured. Usually IC90 stands for the concentration at which the effect reaches the 90% level.
